Test results taken from patent US20260345595A1, “NOVEL FLUORENE DERIVATIVE COMPOUND AND USE THEREOF” (JD BIOSCIENCE INC., priority 2022, published 2026).

Experiments:
CT26 colorectal cancer = CT26 colorectal cancer tumor model; assay type: in vivo, nude mice; settings: 1.0 mg/kg, FIG. 22
Method: A colorectal cancer model was established by subcutaneously transplanting CT26 colorectal cancer cell line into nude mice. The colorectal cancer model was divided into two groups: vehicle administration group and Compound 1 administration group. […] Similar to Experimental Example 13, tumor size was calculated before drug administration and on days 3, 7, 10, 14, 18, 22, and 24 after drug administration, and body weight was measured before drug administration and on days 7, 14 and 22 after drug administration, which are shown in FIG. 22.

[1] = test system: HCT-116 colorectal cancer; assay: HCT-116 colorectal cancer tumor model; assay type: in vivo, nude mice; settings: 0.5 and 1.0 mg/kg
Method: A colorectal cancer model was established by subcutaneously transplanting HCT-116 colorectal cancer cell line into nude mice. The colorectal cancer model was divided into the following three groups: Group 1 was administered a vehicle as a control group, Group 2 was administered 0.5 mg/kg of Compound 1, and Group 3 was administered 1.0 mg/kg of Compound 1. The drug was orally administered once a day for a total of 21 times. To evaluate the therapeutic efficacy, the tumor size was measured before drug administration and on days 3, 7, 10, 14, 17, 21, and 24 after drug administration. The tumor size was calculated as follows:
Tumor size (mm^3)=(A×B^2)/2 • wherein A and B represent the tumor long axis and short axis, respectively.
In addition, the body weight was measured before drug administration and on days 7, 14, and 21 after drug administration.

[2] = Growth inhibition of normal cells, Cell Counting Kit-8; assay type: cell-based, human (BJ); hamster (CHO); murine (Raw264.7); mouse (L929); settings: normal cells, concentration of up to less than 40 μM, 10% FBS, FIG. 15
Method: (§1) In order to verify the growth inhibitory effect of Compound 1 on various normal and cancer cell lines, 25 types of cell lines listed in Table 7 below were tested. In detail, each cell was seeded at a density of 2×10^4 cells/well in a 96-well plate and cultured for 24 hours, and then the medium was replaced with a medium comprising 0.5% (for cancer cells) or 10% (for normal cells) FBS, and Compound 1 was treated at various concentrations. 24 hours later, 10 μL of Cell Counting Kit-8 (Dojindo Molecular Technologies) was added, and 1 hour later, absorbance at 480 nm was measured using a microplate reader (TECAN SPARK), and the results are shown in FIGS. 15 to 21.

[3] = test system: normal cells (BJ, CHO, Raw264.7, L929); assay: as above; assay type: cell-based, human (BJ); hamster (CHO); murine (Raw264.7); mouse (L929); settings: concentrations of up to less than 40 μM, 24 hours
Method: as §1

[4] = test system: bone marrow-derived dendritic cells (BMDCs); assay: IL-1β release (inflammasome formation) in LPS/ATP-stimulated bone marrow-derived dendritic cells, ELISA; assay type: cell-based, C57BL6 mice; settings: versus vehicle control
Method: Furthermore, to verify the anti-inflammatory effect at a cellular level, bone marrow cells of C57BL6 mice were treated with 20 ng/ml of GM-CSF and IL-4, and 6 days later, bone marrow-derived dendritic cells (BMDCs) were collected. The BMDCs were prepared at 1×10^6 cells/mL and stabilized for one day, and then subsequent experiments were conducted. The above dendritic cells were treated with 500 ng/ml of LPS for 3 hours to prime pro-IL1B, and then treated with Compound 1 (0 μM, 0.01 µM, 0.1 μM, 1 μM, and 10 μM) for 15 minutes. Next, 5 mM of ATP was treated, which induces inflammasome formation by converting pro-IL1B to IL-1B through pro-IL1B cleavage, and 30 minutes later, the concentration of IL-1B in the supernatant was measured by ELISA, and the results are shown in FIG. 10 and Table 3.

[5] = test system: GvHD in vivo model in BALB/c mice; assay: Graft-versus-host disease (GvHD) animal model; design: species or system mouse; settings: for production of CD4+IFNg+T cells, mean value: spleen, day 14
Method: 5-week-old BALB/c male mice were acclimatized for 1 week and irradiated with 800 cGy of total body irradiation. Then, 5×10^6 bone marrow cells derived from C57BL/6J and 1×10^7 spleen cells were intravenously injected to establish a GvHD in vivo model (positive control). A syngeneic control group was established in the same manner as above, but BALB/c-derived bone marrow cells were selected as the injected bone marrow cells. Compound 1 Daily was established by daily oral gavage of 1 mg/kg of Compound 1 to the GvHD in vivo model. Compound 1 Initial only was established by orally administering 1 mg/kg of Compound 1 to the GvHD in vivo model only for 6 days after model induction. The therapeutic effect of Compound 1 was verified by measuring the change in body weight every 3 days for each control and experimental group established as above, and the results are shown in FIG. 11 and Table 4. On day 14, the production of CD4^+IFNg^+T cells, which is a major factor inducing GvHD, was measured in the spleens isolated from the mice, and the results are shown in FIG. 12 and Table 5.

CC(C(=O)NNc1ccc(F)cc1)n1cc(-c2cc(F)cc3c2-c2ccccc2C3(O)C(F)(F)F)cn1 (stereo not shown) [Compound 1, 2-(4-(2-fluoro-9-hydroxy-9-(trifluoromethyl)-9H-fluoren-4-yl)-1H-pyrazol-1-yl)-N′-(4-fluorophenyl)propanehydrazide]
body weight change (CT26 colorectal cancer): Neither the vehicle administration group nor the compound 1 administration group showed any change in the body weight
tumor growth (in words) (CT26 colorectal cancer; p<0.05 versus vehicle): statistically significantly delayed and inhibited
body weight change ([1]; oral once a day, 21 times): no significant body weight change
tumor growth (in words) ([1]; oral, p<0.05 versus vehicle, FIG. 21): statistically significant concentration-dependent tumor growth inhibitory effect
viability at 24 h [2]: ≥ 70%
toxicity on normal cells [3]: does not exhibit toxicity on normal cells
inhibition at 0.1 µM ([4]; Mus musculus, BMDC, 0.1 µM, read-out: inhibition of IL-1β expression): ~83.8%
inhibition at 10 µM ([4]; Mus musculus, BMDC, 10 µM, read-out: inhibition of IL-1β expression): ~53.8%
inhibition of IL-1β expression (in words) ([4]; FIG. 10): significantly inhibited
body weight recovery (in words) ([5]; Daily and Initial only, 1 mg/kg oral, versus control, FIG. 11): significantly recovered
production of allogeneic CD4+IFNg+T cells (in words) ([5]; Daily and Initial only, 1 mg/kg oral, versus control, FIG. 12): significantly reduced
production of CD4+IFNg+T cells, mean value ([5]; Daily, 1 mg/kg oral gavage): 10.28
production of CD4+IFNg+T cells, mean value ([5]; Initial only (6 days), 1 mg/kg oral): 13.04
